The values below come from patent US12062422B2, “System, method and computer-accessible medium for use of heavy water as a probe for imaging metabolic activities” (The Trustees of Columbia University in the City of New York, priority 2018, dated 2024).

Series [1] concerns HeLa cells. The experiment in a line: CellTiter-Glo Luminescent Cell Viability Assay, cellular toxicity of D2O. Type of series: cell-based. Conditions: medium containing D2O. The protocol: To determine cellular toxicity, HeLa cells and COS-7 cells were first seeded in […] plates at about 500 per cm^2 and grown overnight; the culture was then changed to DMEM containing different concentration (e.g., 0% to 100%) of D2O for about 48 hours. The viability of cell was accessed using the CellTiter-Glo® Luminescent Cell Viability Assay (e.g., Promega) according to the manufacturer's protocol. Cells cultured in pure DMEM medium were used as control and wells containing only medium without cells for background luminescence. Viability was calculated using the background-corrected […] as follows: Viability (%)=Absorbance of experiment well/Absorbance of control well×100%. Three replicates were performed.
(§1) FIGS. 10A-10E show exemplary graphs and images that illustrate toxicity of D2O on cells and C. elegans. […] Three replicates were performed. Mean and s.d. were shown. […] D-labeled OP50 refers to overnight grown culture of E. coli OP50 that were seeded onto the D2O-containing NGM plates 24 hours before the experiment; non-labeled OP50 refers to the experimental setup, in which bacteria were killed by UV after being placed onto the D2O plates and thus was not labeled by deuterium. Each group has 50 worms, and three replicates were made. Mean and s.d. were shown.

In series [2] the test system is C. elegans. The experiment in a line: Toxicity of D2O on C. elegans (lethality, sterility, brood size, gonad development). Type of series: in vivo. The protocol: C. elegans wild type (e.g., N2) and mutant strains were maintained at 20° C. using nematode growth media (“NGM”) and E. coli strain OP50 as a food source. (See. e.g., Reference 61). Different concentrations of D2O were added to replace H2O in NGM. E. coli OP50 were seeded on D2O-containing NGM plates and grown for 24 hours; worms were then placed at different ages onto those plates for various amount of time. To determine the toxicity of D2O, eggs were prepared using hypochlorite, which made the eggshell porous and permeable to D2O, placed them onto plates containing different concentration of D2O, and counted the number of eggs that could not hatch into normal moving larva. Fourth stage larva were placed onto those plates and counted how many animals became sterile and determined the brood size by counting the total number of hatch larvae from the all the eggs laid by one animal. Three replicates were performed.
as §1
50 worms were used for each treatment, and […] replicates were made. Mean and s.d. were shown. […] Scale bar=20 μm.

In series [3] the test system is HeLa cells. Put plainly: SRS imaging of lipid droplets in HeLa cells, D-labeled fatty acids versus D2O. Type of series: cell-based. Conditions: for CDL signal distribution, lipid droplets: 10 μM D-labeled fatty acid, 6 hours. The protocol: For live-cell imaging, HeLa and COS-7 cells were seeded onto a glass-bottom dish (e.g., MatTek) and grown for 6 to 8 hours in regular DMEM before the medium was changed to DMEM containing 70% D2O. Cells were then grown for different periods of time before being placed onto the stage for SRS imaging. When treating cells with D-labeled fatty acids, they were first reacted with sodium hydroxide and then coupled to bovine serum albumin (“BSA”) in about 2:1 molar ratio to make 2 mM stock solution. Those stock solutions were then added to the medium to reach the final working concentration (e.g., 10 μM).
FIGS. 4A-4E illustrate the exemplary DO-SRS visualizes de novo lipogenesis in cultured cells and in C. elegans. […] The number of lipid droplets formed in the three conditions were quantified (mean±s.d.; N=5 for D-OA, 15 for D-PA, and 8 for D2O; double asterisks indicate p<0.01 in an unpaired t-test). CHL signal for D2O treatment confirmed the presence of few lipid droplets. […] Live bacteria were labeled by deuterium (element 405), and killed bacteria were not labeled (element 410). […] E. coli OP50 were seeded onto the D2O plates 24 hours before the experiments. Scale bar=20 μm. […] CDL mean intensity was plotted. For all C. elegans experiments, at least 8 animals were imaged for each condition to calculate mean intensity; mean±s.d. of the mean intensity was shown.

For series [4] the following is noted: in vivo; cited from earlier work.
For series [5] the following is noted: mouse, in vivo; cited from earlier work.
Series [6] deals with mice. Put plainly: Injection of D-PA into mice, SRS imaging of CDL signal. Type of series: in vivo. Conditions: intraperitoneal bolus injection of 96 μmol. How it is done: To inject D-labeled palmitic acids (“D-Pas”) intravenously, mice were anesthetized by isoflurane, and one of the carotid arteries was cannulated for the implantation of a catheter. A syringe filled with 4 mM D-PA dissolved in mammalian Ringer's solution was then connected with the implanted catheter, and D-PA solution was perfused at 0.001 ml/min using a syringe pump (e.g., AL-1000, WPI). The administration lasted for 8 hours every day for three consecutive days before the mice were sacrificed and their organs were harvested, fixed, sectioned, and imaged by SRS. To inject D-PA intraperitoneally, 0.16 ml of 600 mM D-PA emulsion was injected into the lower right side of abdomen according to a previous method. (See, e.g., Reference 64). 17 hours later, the mice were sacrificed and their tissues were collected and imaged.
FIGS. 13A-13C show exemplary images that illustrate imaging de novo biosynthesis in various mouse organs. […] Lipid-rich sebaceous glands and adipose tissues were harvested from adult mice that drank 25% D2O for 8 and 15 days, respectively. Myelinated axon fibers of internal capsule were harvested from P11 mouse pups that were fed on milk produced by mother mice drinking 25% D2O for 6 days before imaging. […] Tissues were harvested, fixed, and imaged 17 hours after the injection. […] Scale bar=[…].

The test system of series [7] is endoplasmic reticulum. The following applies: approximately 200 μM; cited from earlier work.
The test system of series [8] is HeLa cells. Put plainly: Raman spectra of D2O-treated HeLa cells with protein or lipid synthesis inhibitors. Conditions: 24 hours. Type of series: cell-based. The protocol:
For inhibitor treatments, cells were first grown in glass bottom dishes with DMEM made of H2O overnight, and then the medium was changed to 70% D2O DMEM containing either 10 nM fatty acid synthase inhibitor TVB-3166 (e.g., Sigma CAS 1533438-83-3) or 1 μM protein synthesis inhibitor anisomycin (e.g., Sigma CAS 22862-76-6). Cells were then cultured for 24 hours, imaged by SRS microscopy, and fixed by 4% paraformaldehyde for spontaneous Raman spectroscopy.
Cells grown in DMEM made of 100% H2O were used as control.

Turning to `[2H]O[2H]` [D2O, deuterium oxide], in series [1], the “D2O concentration above which toxicity arises” value is reported as “exceeded 80%”. Besides, the gonad development result in series [2] (60% D2O, animals developed from L4 to adults on D2O plates) is “gonad developed normally”. Besides, in series [2] (80% D2O), the gonad development entry is recorded as “gonad development was disrupted” and the “proliferation of the germ cells” value was “appeared to be affected”. Besides, in series [2] (C. elegans), the “D2O concentration with no observable toxicity and no effect on cell division” value was under 60%. Also, in series [2] (in vivo), the embryo formation entry is “normal embryos were formed” and the “embryo formation in the uterus” value is reported as “no embryos were formed”. Further, the “lipid droplets in CDL and CHL channels” value in series [3] (70% D2O, 24 hours) is given as “very few lipid droplets”. Moreover, in series [4], the adverse symptoms result was “does not cause any adverse symptoms” and the body water enrichment entry was “approximately 2%”. In addition, the “D2O enrichment that did not cause any effect on physiological processes” value in series [5] is reported as “below 20%”.
For the molecule `[2H]OC(=O)C([2H])([2H])C([2H])([2H])C([2H])([2H])C([2H])([2H])C([2H])([2H])C([2H])([2H])C([2H])([2H])/C([2H])=C(/[2H])C([2H])([2H])C([2H])([2H])C([2H])([2H])C([2H])([2H])C([2H])([2H])C([2H])([2H])C([2H])([2H])C([2H])([2H])[2H]` [D-OA, D34-oleic acids], in series [3] (10 μM), the “number of lipid droplets, comparison” value was “remarkably more lipid droplets than D-PA”. In addition, the “CDL signal distribution, lipid droplets” value in series [3] is on record as “accumulation of CDL signal in lipid droplets”.
Regarding `[2H]C([2H])([2H])C([2H])([2H])C([2H])([2H])C([2H])([2H])C([2H])([2H])C([2H])([2H])C([2H])([2H])C([2H])([2H])C([2H])([2H])C([2H])([2H])C([2H])([2H])C([2H])([2H])C([2H])([2H])C([2H])([2H])C([2H])([2H])C(=O)O` [D-PA, D31-palmitic acids], the “CDL signal distribution, lipid droplets” value in series [3] is “accumulation of CDL signal in lipid droplets”. In series [6], the “CDL signal in pancreas” value was “accumulation of CDL signal in the ER membrane of pancreatic cells”.
Turning to `CCCCCCCC/C=C\CCCCCCCC(=O)O` [OA, oleic acid], the “effect on endoplasmic reticulum membrane” value in series [7] was “not”.
As for `CCCCCCCCCCCCCCCC(=O)O` [PA, palmitic acid], in series [7], the “effect on endoplasmic reticulum membrane” value was “drove the formation of solid-like microdomain and membrane phase separation in endoplasmic reticulum”.
`COc1ccc(C[C@H]2NC[C@H](O)[C@H]2OC(C)=O)cc1` [anisomycin]: the “peak of remaining C-D Raman signal” value in series [8] (1 μM anisomycin, 70% D2O DMEM, remaining D-labeled lipid signal) was 2135 cm⁻¹.
TVB-3166: the “peak of remaining C-D Raman signal” value in series [8] (10 nM TVB-3166, 70% D2O DMEM, remaining D-labeled protein signal) is 2185 cm⁻¹.
